Measured values: BigSolDB 2.1

With `O=C(O)/C=C/c1ccc(O)cc1` the solubility (mole fraction) (in ethanol, 283.15 K) was 0.0358, the solubility (mole fraction) (in ethanol, 288.15 K) was 0.0381 and the solubility (mole fraction) (in ethanol, 293.15 K) was 0.0414. It also gave a solubility (mole fraction) (in ethanol, 298.15 K) of 0.0461, a solubility (mole fraction) (in ethanol, 303.15 K) of 0.0514 and a solubility (mole fraction) (in ethanol, 308.15 K) of 0.0559. The solubility (mole fraction) (in ethanol, 313.15 K) was 0.0621, the solubility (mole fraction) (in ethanol, 318.15 K) was 0.0675 and the solubility (mole fraction) (in ethanol, 323.15 K) was 0.0735. For the same compound, the solubility (mole fraction) (in ethyl acetate, 283.15 K) was 0.00928, the solubility (mole fraction) (in ethyl acetate, 288.15 K) was 0.0101 and the solubility (mole fraction) (in ethyl acetate, 293.15 K) was 0.0114. It also gave a solubility (mole fraction) (in ethyl acetate, 298.15 K) of 0.0129, a solubility (mole fraction) (in ethyl acetate, 303.15 K) of 0.0145 and a solubility (mole fraction) (in ethyl acetate, 308.15 K) of 0.0164. The solubility (mole fraction) (in ethyl acetate, 313.15 K) was 0.0185, the solubility (mole fraction) (in ethyl acetate, 318.15 K) was 0.0208 and the solubility (mole fraction) (in ethyl acetate, 323.15 K) was 0.0232.
`COc1cc(C=O)ccc1O` gave a solubility (mole fraction) (in ethanol, 283.15 K) of 0.0673, a solubility (mole fraction) (in ethanol, 288.15 K) of 0.0698 and a solubility (mole fraction) (in ethanol, 293.15 K) of 0.0734. For the same compound, the solubility (mole fraction) (in ethanol, 298.15 K) was 0.0785, the solubility (mole fraction) (in ethanol, 303.15 K) was 0.082 and the solubility (mole fraction) (in ethanol, 308.15 K) was 0.0854. For the same compound, the solubility (mole fraction) (in ethanol, 313.15 K) was 0.0902, the solubility (mole fraction) (in ethanol, 318.15 K) was 0.0938 and the solubility (mole fraction) (in ethanol, 323.15 K) was 0.0985. It also gave a solubility (mole fraction) (in ethyl acetate, 283.15 K) of 0.109, a solubility (mole fraction) (in ethyl acetate, 288.15 K) of 0.115 and a solubility (mole fraction) (in ethyl acetate, 293.15 K) of 0.118. The solubility (mole fraction) (in ethyl acetate, 298.15 K) was 0.125, the solubility (mole fraction) (in ethyl acetate, 303.15 K) was 0.128 and the solubility (mole fraction) (in ethyl acetate, 308.15 K) was 0.133. It also gave a solubility (mole fraction) (in ethyl acetate, 313.15 K) of 0.137, a solubility (mole fraction) (in ethyl acetate, 318.15 K) of 0.142 and a solubility (mole fraction) (in ethyl acetate, 323.15 K) of 0.15.
